Tests used:
human Edg-1(S1P1) [1] = biological target: T1, human Edg-1(S1P1) (Homo sapiens, UniProt P21453); test: Cell system binding test: inhibition of [3H]-S1P binding to Edg-1(S1P1) gene transferred HEK-293 cells; conditions: [3H]-S1P 10 nM
T1 construct: expressed in transfected cells; host or cells: HEK-293

human Edg-1(S1P1) [2] = biological target: T1, human Edg-1(S1P1); test: Membrane system binding test: inhibition of [33P]-S1P binding to the membrane fraction of Edg-1(S1P1) gene transferred HEK-293 cells; conditions: [33P]-S1P 0.1 nM
How it was run: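 Membranes from HEK-293 cells transfected with Edg-1(S1P1) incubated 1 h at 30 °C with 0.1 nM [^33P]-S1P and compound at 10^−5 M (0.1% DMSO), pH 7.4 buffer with fatty acid-free BSA. Filter-bound radioactivity counted; inhibition rate calculated against no-compound binding, with untransfected-cell background subtracted.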

[3] = 10 μM compound, read-out: Cell system binding test % inhibition (10 μM)
[4] = 10 μM compound, membrane fraction of Edg-1(S1P1) gene transferred HEK-293 cells, read-out: Membrane system binding test % inhibition (10 μM)
[5] = test compound 10^-5 M, 1 hour, read-out: Edg-1(S1P1) binding inhibition rate (cell system binding test)
[6] = test compound 10^-5 M, 1 hour at 30° C., HEK-293 membrane fraction, read-out: Edg-1(S1P1) binding inhibition rate (membrane system binding test)

T1 sequence (P21453 whole entry): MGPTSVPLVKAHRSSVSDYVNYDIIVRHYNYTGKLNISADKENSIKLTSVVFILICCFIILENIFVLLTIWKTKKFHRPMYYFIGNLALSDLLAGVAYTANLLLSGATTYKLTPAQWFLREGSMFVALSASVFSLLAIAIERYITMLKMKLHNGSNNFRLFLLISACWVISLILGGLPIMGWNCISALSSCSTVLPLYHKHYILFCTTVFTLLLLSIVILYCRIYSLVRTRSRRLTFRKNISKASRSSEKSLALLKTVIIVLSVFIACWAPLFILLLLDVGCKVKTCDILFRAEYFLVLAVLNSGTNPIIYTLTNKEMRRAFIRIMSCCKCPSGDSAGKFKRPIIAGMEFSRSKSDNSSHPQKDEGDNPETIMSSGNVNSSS

Row | SMILES | inhibition at 10 µM (human Edg-1(S1P1) [1]; [3]) | melting point | inhibition at 10 µM (human Edg-1(S1P1) [2]; [4]) | inhibition at 10 µM (human Edg-1(S1P1) [1]; [5]) | inhibition at 10 µM (human Edg-1(S1P1) [2]; [6])
1 | CCn1c(SC)nnc1[C@@H](C)NS(=O)(=O)c1ccc(Cl)cc1 [Compound 1, 4-chloro-N-{(1R)-1-[4-ethyl-5-(methylthio)-4H-1,2,4-triazol-3-yl]ethyl}benzenesulfonamide] | 89.8% | 176 to 177 °C | 72.3% |  | 
2 | CCn1c(S)nnc1[C@@H](C)NS(=O)(=O)c1ccc(Cl)cc1 [Compound 90, 4-chloro-N-[(1R)-1-(4-ethyl-5-mercapto-4H-1,2,4-triazol-3-yl)ethyl]benzenesulfonamide] | 60.6% | 169.5 to 172.5 °C | 48.8% |  | 
3 | C=CCSc1nnc([C@@H](C)N(C)S(=O)(=O)c2ccc(Cl)cc2)n1CC [Compound 99, N-{(1R)-1-[5-(allylthio)-4-ethyl-4H-1,2,4-triazol-3-yl]ethyl}-4-chloro-N-methylbenzenesulfonamide] | 75.8% | 142 to 143 °C | 57.4% |  | 
4 | CCn1c([C@@H](C)NS(=O)(=O)c2ccc(Cl)cc2)nnc1S(C)(=O)=O [Compound 182, 4-Chloro-N-{(1R)-1-[4-ethyl-5-(methylsulfonyl)-4H-1,2,4-triazol-3-yl]ethyl}benzenesulfonamide] | 53.7% | 129 to 130 °C |  |  | 
5 | CCc1ccc(S(=O)(=O)N[C@H](C)c2nnc(OC(C)C)n2CC)cc1 [Compound 480] |  |  |  | 93.1% | 77.4%
6 | CCn1c(OC(C)C)nnc1[C@@H](C)NS(=O)(=O)c1cccc(OC)c1 [Compound 481] |  |  |  | 96.3% | 64.9%
7 | CCn1c(OC(C)C)nnc1[C@@H](C)NS(=O)(=O)c1cc(F)c(Br)cc1F [Compound 482] |  |  |  | 90.7% | 72.3%
8 | CCn1c(OCC(F)(F)F)nnc1[C@@H](C)NS(=O)(=O)c1ccc(Br)s1 [Compound 484] |  |  |  | 102% | 63.2%
9 | CCn1c(OCC(F)(F)F)nnc1[C@@H](C)NS(=O)(=O)c1ccc(Cl)c(Cl)c1 [Compound 485] |  |  |  | 103% | 95.5%
10 | CCn1c(OCC(F)(F)F)nnc1[C@@H](C)NS(=O)(=O)c1ccc(C)c(Cl)c1 [Compound 486] |  |  |  | 99.5% | 93.8%
11 | CCn1c(OCC(F)(F)F)nnc1[C@@H](C)NS(=O)(=O)c1ccc(Br)c(F)c1 [Compound 487] |  |  |  | 99.6% | 90.4%
12 | CCn1c(OCC(F)(F)F)nnc1[C@@H](C)NS(=O)(=O)c1ccc(F)c(Cl)c1 [Compound 488] |  |  |  | 102% | 91.4%
13 | CCn1c(OCC(F)(F)F)nnc1[C@@H](C)NS(=O)(=O)c1ccc(Br)c(C)c1 [Compound 489] |  |  |  | 103% | 98.4%
14 | CCn1c(OCC(F)(F)F)nnc1[C@@H](C)NS(=O)(=O)c1cc(F)c(F)c(F)c1 [Compound 490] |  |  |  | 101% | 88.9%
15 | CCn1c(OCC(F)(F)F)nnc1[C@@H](C)NS(=O)(=O)c1cccc(Br)c1 [Compound 491] |  |  |  | 88.9% | 75.7%
16 | CCn1c(OCC(F)(F)F)nnc1[C@@H](C)NS(=O)(=O)c1ccc(Br)cc1 [Compound 492] |  |  |  | 104% | 87.9%
17 | CCn1c(OCC(F)(F)F)nnc1[C@@H](C)NS(=O)(=O)c1ccc(C)c(C)c1 [Compound 493] |  |  |  | 105% | 88.3%
18 | CCn1c(OCC(F)(F)F)nnc1[C@@H](C)NS(=O)(=O)c1ccc(C)c(F)c1 [Compound 494] |  |  |  | 102% | 87.1%

Second part, the compound after the results:

Row | inhibition at 10 µM (human Edg-1(S1P1) [1]; [3]) | melting point | inhibition at 10 µM (human Edg-1(S1P1) [2]; [4]) | inhibition at 10 µM (human Edg-1(S1P1) [1]; [5]) | inhibition at 10 µM (human Edg-1(S1P1) [2]; [6]) | SMILES
19 |  |  |  | 104% | 89.9% | CCn1c(OCC(F)(F)F)nnc1[C@@H](C)NS(=O)(=O)c1ccc2ccccc2c1 [Compound 495]
20 |  |  |  | 103% | 75.7% | CCn1c(OCC(F)(F)F)nnc1[C@@H](C)NS(=O)(=O)c1ccc(F)c(F)c1 [Compound 496]
21 |  |  |  | 102% | 66.5% | CCn1c(OCC(F)(F)F)nnc1[C@@H](C)NS(=O)(=O)c1cccc(OC(F)F)c1 [Compound 497]
22 |  |  |  | 104% | 88.5% | CCn1c(OCC(F)(F)F)nnc1[C@@H](C)NS(=O)(=O)c1cccc(Cl)c1C [Compound 498]
23 |  |  |  | 107% | 89.1% | CCn1c(OCC(F)(F)F)nnc1[C@@H](C)NS(=O)(=O)c1ccc2nsnc2c1 [Compound 499]
24 |  |  |  | 103% | 81.6% | CCn1c(OCC(F)(F)F)nnc1[C@@H](C)NS(=O)(=O)c1ccc(C(F)(F)F)cc1 [Compound 500]
25 |  |  |  | 102% | 55.4% | CCn1c(OCC(F)(F)F)nnc1[C@@H](C)NS(=O)(=O)c1cc(F)cc(F)c1 [Compound 501]
26 |  |  |  | 108% | 86.3% | CCn1c(OCC(F)(F)F)nnc1[C@@H](C)NS(=O)(=O)c1ccc(Br)c(Br)c1 [Compound 502]
27 |  |  |  | 104% | 73.3% | CCn1c(OCC(F)(F)F)nnc1[C@@H](C)NS(=O)(=O)c1cccc(C(F)(F)F)c1 [Compound 503]
28 |  |  |  | 96.6% | 54% | CCn1c(OCC(F)(F)F)nnc1[C@@H](C)NS(=O)(=O)c1cccc(OC(F)(F)F)c1 [Compound 504]
29 |  |  |  | 103% | 74.4% | CCn1c(OCC(F)(F)F)nnc1[C@@H](C)NS(=O)(=O)c1cccc(C)c1 [Compound 505]
30 |  |  |  | 106% | 70.9% | CCn1c(OCC(F)(F)F)nnc1[C@@H](C)NS(=O)(=O)c1cc(Cl)c(Cl)s1 [Compound 510]
31 |  |  |  | 99% | 85.4% | CCn1c(OCC(F)(F)F)nnc1[C@@H](C)NS(=O)(=O)c1ccc(I)cc1 [Compound 511]
32 |  |  |  | 105% | 71.5% | CCn1c(OCC(F)(F)F)nnc1[C@@H](C)NS(=O)(=O)c1ccc(F)cc1 [Compound 512]
33 |  |  |  | 98.8% | 55.2% | CCn1c(OCC(F)(F)F)nnc1[C@@H](C)NS(=O)(=O)c1ccc(Br)c(C(F)(F)F)c1 [Compound 513]
34 |  |  |  | 98.4% | 86.7% | CCn1c(OCC(F)(F)F)nnc1[C@@H](C)NS(=O)(=O)c1cccc(Cl)c1 [Compound 514]
35 |  |  |  | 103% | 62.4% | CCc1ccc(S(=O)(=O)N[C@H](C)c2nnc(OCC(F)(F)F)n2CC)cc1 [Compound 515]
36 |  |  |  | 101% | 61.9% | CCn1c(OCC(F)(F)F)nnc1[C@@H](C)NS(=O)(=O)c1cccc(OC)c1 [Compound 516]
37 |  |  |  | 93.7% | 42.7% | CCn1c(OCC(F)(F)F)nnc1[C@@H](C)NS(=O)(=O)c1cc(F)c(Br)cc1F [Compound 517]
38 |  |  |  | 97.1% | 75.8% | CCCn1c(OC)nnc1[C@@H](C)NS(=O)(=O)c1ccc(Cl)cc1 [Compound 541]
39 |  |  |  | 99.9% | 92.3% | COc1nnc([C@@H](C)NS(=O)(=O)c2ccc(Cl)cc2)n1C(C)C [Compound 542]
40 |  |  |  | 93.1% | 101% | COc1nnc([C@@H](C)NS(=O)(=O)c2ccc(Cl)cc2)n1C1CC1 [Compound 543]
41 |  |  |  | 47.5% | 100% | CCCCn1c(OC)nnc1[C@@H](C)NS(=O)(=O)c1ccc(Cl)cc1 [Compound 544]

From patent US8022225B2, “Triazole derivative” (Taisho Pharmaceutical Co., Ltd, priority 2004, dated 2011)
